What all share (format): biochemical
Assay [1] deals with T1, full length active recombinant SYK enzyme (Homo sapiens, UniProt P43405).
T1 construct: full length active recombinant SYK enzyme (Millipore, CA); purchased Millipore
Put plainly: SYK tyrosine phosphorylation activity, LANCE TR-FRET kinase assay. To be noted: 1 nM SYK, 100 μM ATP, 1 hour at room temperature. As for the experimental part:
Potency of candidate molecules for inhibiting Syk tyrosine phosphorylation activity is assessed by measuring the ability of a test compound to inhibit Syk-mediated tyrosine phosphorylation of a Syk-specific substrate.
SYK tyrosine phosphorylation activity is measured using the LANCE™ Technology developed by Perkin Elmer Life and Analytical Sciences (Boston, Mass.). LANCE™ refers to homogeneous time resolved fluorometry applications using techniques such as time-resolved fluorescence resonance energy transfer assay (TR-FRET) (see generally for procedures in Perkin Elmer Application Note—How to Optimize a Tyrosine Kinase Assay Using Time Resolved Fluorescence-Based LANCE Detection, wwww.perkinelmer.com/lifesciences). The assay principle involves detection of a phosphorylated substrate using energy transfer from a phosphospecific europium-labeled antibody to streptavidin-allophycocyanin as an acceptor.
To test the ability of candidate molecules to inhibit SYK tyrosine phosphorylation activity, molecules are reconstituted in 30% DMSO and serially diluted 1:3 with the final dilution containing DMSO in the absence of the candidate molecule. The final DMSO concentration in the assay is 3%. Kinase assays are performed as a two part reaction. The first reaction is a kinase reaction that comprises a candidate molecule, full length active recombinant SYK enzyme (Millipore, CA) and biotin-labeled SYK-specific substrate biotin-[…]-OH. The second reaction involves termination of the kinase reaction and the simultaneous addition of the detection reagents-europium-labeled anti-phosphotyrosine reagent (Eu-W1024-PY100, Perkin Elmer, Boston, Mass.) and Streptavidin-Allophycocyanin detection reagent (SA-APC, Prozyme, CA). The kinase reaction is performed in a black U-bottom 96-well microtitre plate. The final reaction volume is 50 μL and contains a final concentration of 1 nM active SYK enzyme, 550 nM SYK-substrate, and 100 μM ATP diluted in a buffer containing 50 mM Tris pH 7.5, 5 mM MgCl2, and 1 mM DTT. The reaction is allowed to proceed for 1 hour at room temperature. The stop buffer contains 100 mM Tris pH 7.5, 300 mM NaCl2, 20 mM EDTA, 0.02% Brij35, and 0.5% BSA. The detection reagents are added to the reaction mixture at the following dilutions—1:500 for Eu-W1024-PY100 and 1:250 for SA-APC. The kinase reaction is terminated by the addition of 50 μL stop buffer containing the detection reagents. The detection is allowed to proceed for 1 hr at room temperature. Detection of the phosphorolated substrate in the absence and presence of inhibitors is measured in the TR-FRET instrument, Analyst HT (Molecular Probes, Sunnyvale, Calif.) and the condition for measurements are set up using CriterionHost Release 2.0 (Molecular Probes, Sunnyvale, Calif.). The settings used are a follows: excitation 360 nm, emission 665-7.5 nm, beam splitter 350 nm 50/50, flash 100 pulses, delay 60 us, integration 400 us, z-height 2 mm. Inhibition of SYK-tyrosine kinase activity is calculated as the maximum response observed in the presence of inhibitor, compared to that in the absence of inhibitor. IC50s are derived by non-linear regression analysis.

In assay [2] the target is T2, JAK1 (Homo sapiens, UniProt P23458).
T2 construct: 5 μl of catalytic domain recombinant Kinase enzyme+Tyr peptide substrate (Invitrogen, CA); purchased Invitrogen
T2 sequence (P23458 875-1153 limits assumed): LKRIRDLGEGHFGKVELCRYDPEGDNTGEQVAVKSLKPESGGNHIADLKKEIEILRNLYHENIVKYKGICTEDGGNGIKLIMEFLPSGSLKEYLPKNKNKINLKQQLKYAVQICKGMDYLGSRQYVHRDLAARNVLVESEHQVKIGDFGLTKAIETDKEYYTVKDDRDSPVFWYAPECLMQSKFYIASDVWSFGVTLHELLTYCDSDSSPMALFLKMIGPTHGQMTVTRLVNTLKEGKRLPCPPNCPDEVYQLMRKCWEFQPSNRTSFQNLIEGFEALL
Description: JAK tyrosine phosphorylation activity, Z'-LYTE FRET kinase assay. Conditions: catalytic domain recombinant kinase, Tyr6 peptide. As for the experimental part:
(§1) JAK and SYK tyrosine phosphorylation activity is measured using the Z'-LYTE™ Technology developed by Invitrogen Corporation (Carlsbad, Calif.). For JAK1, JAK2 and JAK3 the Z'-LYTE™ Kinase Assay Kit-Tyr6 Peptide (part number PV4122) was used. The Z'-LYTE™ biochemical assay employs a fluorescence resonance energy transfer (FRET) coupled-enzyme format and is based on the differential sensitivity of phosphorylated and non-phosphorylated peptides to proteolitic cleavage. The assay uses a synthetic peptide substrate that is labelled with a donor fluorophore (coumarin) and an acceptor fluorophore (fluorescein) that make up a FRET pair. In the primary reaction (the Kinase Reaction), the kinase transfers the γ-phosphate of ATP to a single tyrosine residue on the substrate, while the presence of a kinase inhibitor in the primary reaction suppresses phosphorylation. In the secondary reaction (the Development Reaction), a site-specific protease (the Development Reagent) is added. The development buffer quenches the Kinase Reaction, while the protease recognizes and cleaves non-phosphorylated Z'-LYTE™ peptide substrate. Cleavage disrupts FRET between the donor and acceptor fluorophores on the non-phosphorylated substrate, while uncleaved, phosphorylated substrate maintains FRET.
(§2) To test the ability of candidate molecules to inhibit JAK tyrosine phosphorylation activity, molecules are reconstituted in 100% DMSO and serially diluted 1:10 in polypropylene v-bottom microtiter plates. The candidate molecules are then diluted 1:25 into kinase buffer and 2.5 μl transferred into duplicate wells of a 384 well low volume black microtiter assay plate (Corning, USA). The final DMSO concentration in the assay is 1%. The kinase reaction contains 2.5 μl of a candidate molecule, 5 μl of catalytic domain recombinant Kinase enzyme+Tyr peptide substrate (Invitrogen, CA) and 2.5 μl ATP (Invitrogen, CA). The kinase reaction is allowed to precede for 1 hour at room temperature. The protease reaction is initiated by the addition of 5 μl Development Reagent (Invitrogen, CA). After 1 hour incubation at room temperature the fluorescence is measured using a FlexStation plate reader (Molecular Devices, Sunnyvale, Calif.). The reader settings used are as follows: Fluorescence mode, endpoint, top read, excitation 400 nm, emission 445 nm and 520 nm. Auto Cutoff 435 nm and 515 nm, PMT sensitivity high, 6 reads per well. Inhibition of JAK activity is calculated as the percent phosphorylation of substrate in the presence of inhibitor compared to the percent phosphorylation of substrate in the absence of inhibitor. IC50's were derived using Xlfit 4.3 (IDBS, UK), 4 parameter logistic model 205: Y=(A+((B−A)/(1+((C/x)^D)))).

The target in assay [3] is T3, JAK2 (Homo sapiens, UniProt O60674).
T3 construct: 5 μl of catalytic domain recombinant Kinase enzyme+Tyr peptide substrate (Invitrogen, CA); purchased Invitrogen
T3 sequence (O60674 849-1124 limits assumed): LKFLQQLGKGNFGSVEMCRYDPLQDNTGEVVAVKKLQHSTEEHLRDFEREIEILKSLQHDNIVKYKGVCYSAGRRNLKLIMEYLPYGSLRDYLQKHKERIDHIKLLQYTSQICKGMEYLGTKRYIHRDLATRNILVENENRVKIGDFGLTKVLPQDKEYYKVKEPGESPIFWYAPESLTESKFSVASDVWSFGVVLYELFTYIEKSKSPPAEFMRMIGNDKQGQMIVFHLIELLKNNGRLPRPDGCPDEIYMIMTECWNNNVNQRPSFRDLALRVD
The assay is described as above. To be noted: catalytic domain recombinant kinase, Tyr6 peptide. As for the experimental part:
as §1, §2

Assay [4] has as its target T4, JAK3 (Homo sapiens, UniProt P52333).
T4 construct: 5 μl of catalytic domain recombinant Kinase enzyme+Tyr peptide substrate (Invitrogen, CA); purchased Invitrogen
The assay is described as above. To be noted: catalytic domain recombinant kinase, Tyr6 peptide. As for the experimental part: as §1, §2

Like-named read-outs stand apart in the source and are kept apart here.

T4 sequence (P52333 822-1111 limits assumed): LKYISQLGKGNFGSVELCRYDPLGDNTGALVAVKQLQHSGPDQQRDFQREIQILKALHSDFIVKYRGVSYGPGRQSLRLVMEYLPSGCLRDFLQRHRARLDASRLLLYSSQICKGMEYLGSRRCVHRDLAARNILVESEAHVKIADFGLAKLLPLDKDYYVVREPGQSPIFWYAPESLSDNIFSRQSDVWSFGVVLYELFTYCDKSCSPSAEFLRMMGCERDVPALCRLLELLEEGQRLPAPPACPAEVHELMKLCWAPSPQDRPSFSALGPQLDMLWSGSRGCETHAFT

Consider `CC(C)c1ccc(Nc2ncc(C(N)=O)c(NC3CC3)n2)cc1` [Compound 59, 4-(cyclopropylamino)-2-((4-isopropylphenyl)amino)pyrimidine-5-carboxamide], for which the IC50 entry in assay [1] is “+++ (0.10 uM<IC50<0.01 uM)”. Moreover, the “JAK1 IC50 potency class” value in assay [2] is listed as “++ (1.0 uM<IC50<0.10 uM)”. Further, the “JAK2 IC50 potency class” value in assay [3] was “++ (1.0 uM<IC50<0.10 uM)”. Further, the “JAK3 IC50 potency class” value in assay [4] is given as “+++ (0.10 uM<IC50<0.01 uM)”.

With `CC(C)N1CCC(c2ccc(Nc3ncc(C(N)=O)c(NC4CC4)n3)cc2)CC1` [Compound 4, 4-(cyclopropylamino)-2-((4-(1-isopropylpiperidin-4-yl)phenyl)amino)pyrimidine-5-carboxamide], the IC50 entry in assay [1] is on record as “+++ (0.10 uM<IC50<0.01 uM)”. Also, in assay [2], the “JAK1 IC50 potency class” value is on record as “+++ (0.10 uM<IC50<0.01 uM)”. Besides, the “JAK2 IC50 potency class” value in assay [3] is “+++ (0.10 uM<IC50<0.01 uM)”. In addition, the “JAK3 IC50 potency class” value in assay [4] is “++++ (0.01 uM<IC50<0.001 uM)”.

Consider `CN(C)C(=O)C1CN(c2ccc(Nc3ncc(C(N)=O)c(NC4CC4)n3)cc2F)C1` [Compound 77, 4-(cyclopropylamino)-2-(4-(3-(dimethylcarbamoyl)azetidin-1-yl)-3-fluorophenylamino)pyrimidine-5-carboxamide], for which, in assay [1], the IC50 result is reported as “++ (1.0 uM<IC50<0.10 uM)”.

For the molecule `CC(=O)N1CC(c2ccc(Nc3ncc(C(N)=O)c(NC4CC4)n3)cc2)C1` [Compound 71, 2-(4-(1-acetylazetidin-3-yl)phenylamino)-4-(cyclopropylamino)pyrimidine-5-carboxamide], the IC50 result in assay [1] is on record as “+++ (0.10 uM<IC50<0.01 uM)”.

Take `CS(=O)(=O)N1CCN(c2ccc(Nc3ncc(C(N)=O)c(NC4CC4)n3)cc2F)CC1` [Compound 41, 4-(cyclopropylamino)-2-((3-fluoro-4-(4-(methylsulfonyl)piperazin-1-yl)phenyl)amino)pyrimidine-5-carboxamide]: the IC50 result in assay [1] is on record as “+++ (0.10 uM<IC50<0.01 uM)”. In assay [2], the “JAK1 IC50 potency class” value was “+++ (0.10 uM<IC50<0.01 uM)”. For the same molecule, the “JAK2 IC50 potency class” value in assay [3] was “++++ (0.01 uM<IC50<0.001 uM)”. For the same molecule, the “JAK3 IC50 potency class” value in assay [4] was “++++ (0.01 uM<IC50<0.001 uM)”.

Consider `CCS(=O)(=O)N1CCN(c2ccc(Nc3ncc(C(N)=O)c(NC4CC4)n3)nc2)CC1` [Compound 67, 4-(cyclopropylamino)-2-((5-(4-(ethylsulfonyl)piperazin-1-yl)pyridin-2-yl)amino)pyrimidine-5-carboxamide], for which, in assay [1] (read-out: Syk IC50 % Inhibition), the IC50 was > 1 µM. Moreover, the “JAK1 IC50 potency class” value in assay [2] is “++ (1.0 uM<IC50<0.10 uM)”. In addition, the “JAK2 IC50 potency class” value in assay [3] was “++ (1.0 uM<IC50<0.10 uM)”. For the same molecule, the “JAK3 IC50 potency class” value in assay [4] was “++ (1.0 uM<IC50<0.10 uM)”.

Take `NC(=O)c1cnc(Nc2ccc(N3CCOCC3)c(F)c2)nc1NC1CC1` [Compound 54, 4-(cyclopropylamino)-2-((3-fluoro-4-morpholinophenyl)amino)pyrimidine-5-carboxamide]: the IC50 entry in assay [1] is “+++ (0.10 uM<IC50<0.01 uM)”. In addition, the “JAK1 IC50 potency class” value in assay [2] is “+++ (0.10 uM<IC50<0.01 uM)”. Besides, in assay [3], the “JAK2 IC50 potency class” value is listed as “++++ (0.01 uM<IC50<0.001 uM)”. The “JAK3 IC50 potency class” value in assay [4] was “++++ (0.01 uM<IC50<0.001 uM)”.

For the molecule `N#CCC(=O)N1CCC(c2ccc(Nc3ncc(C(N)=O)c(NC4CC4)n3)cc2)CC1` [Compound 25, 2-((4-(1-(2-cyanoacetyl)piperidin-4-yl)phenyl)amino)-4-(cyclopropylamino)pyrimidine-5-carboxamide], the IC50 result in assay [1] is “+++ (0.10 uM<IC50<0.01 uM)”. Further, in assay [2], the “JAK1 IC50 potency class” value is “+++ (0.10 uM<IC50<0.01 uM)”. Besides, the “JAK2 IC50 potency class” value in assay [3] was “++++ (0.01 uM<IC50<0.001 uM)”. In assay [4], the “JAK3 IC50 potency class” value is “++++ (0.01 uM<IC50<0.001 uM)”.

`CS(=O)(=O)N1CC(c2ccc(Nc3ncc(C(N)=O)c(NC4CC4)n3)cc2)C1` [Compound 73, 4-(cyclopropylamino)-2-(4-(1-(methylsulfonyl)azetidin-3-yl)phenylamino)pyrimidine-5-carboxamide]: the IC50 result in assay [1] was “+++ (0.10 uM<IC50<0.01 uM)”.

With `CN(C)C(=O)C1CCN(c2ccc(Nc3ncc(C(N)=O)c(NC4CC4)n3)cc2F)CC1` [Compound 52, 4-(cyclopropylamino)-2-((4-(4-(dimethylcarbamoyl)piperidin-1-yl)-3-fluorophenyl)amino)pyrimidine-5-carboxamide], the concentration for half-maximal inhibition (IC50) result in assay [1] is listed as “+++ (0.10 uM<IC50<0.01 uM)”. Further, the “JAK1 IC50 potency class” value in assay [2] was “+++ (0.10 uM<IC50<0.01 uM)”. In addition, the “JAK2 IC50 potency class” value in assay [3] is “++++ (0.01 uM<IC50<0.001 uM)”. Besides, in assay [4], the “JAK3 IC50 potency class” value was “++++ (0.01 uM<IC50<0.001 uM)”.

Consider `CN(C)S(=O)(=O)N1CC(c2ccc(Nc3ncc(C(N)=O)c(NC4CC4)n3)cc2)C1` [Compound 74, 4-(cyclopropylamino)-2-(4-(1-(N,N-dimethylsulfamoyl)azetidin-3-yl)phenylamino)pyrimidine-5-carboxamide], for which, in assay [1], the IC50 entry is given as “+++ (0.10 uM<IC50<0.01 uM)”.

For `COCC(=O)N1CC(c2ccc(Nc3ncc(C(N)=O)c(NC4CC4)n3)cc2)C1` [Compound 72, 4-(cyclopropylamino)-2-(4-(1-(2-methoxyacetyl)azetidin-3-yl)phenylamino)pyrimidine-5-carboxamide], in assay [1], the IC50 entry is on record as “+++ (0.10 uM<IC50<0.01 uM)”.

As to `CN(C)C(=O)C1CN(c2ccc(Nc3ncc(C(N)=O)c(NC4CC4)n3)cc2)C1` [Compound 76, 4-(cyclopropylamino)-2-(4-(3-(dimethylcarbamoyl)azetidin-1-yl)phenylamino)pyrimidine-5-carboxamide], the IC50 result in assay [1] was “++ (1.0 uM<IC50<0.10 uM)”.

In the case of `CCS(=O)(=O)N1CC(c2ccc(Nc3ncc(C(N)=O)c(NC4CC4)n3)cc2)C1` [Compound 75, 4-(cyclopropylamino)-2-(4-(1-(ethylsulfonyl)azetidin-3-yl)phenylamino)pyrimidine-5-carboxamide], the IC50 result in assay [1] is given as “+++ (0.10 uM<IC50<0.01 uM)”.
